# Reference: ChEMBL document CHEMBL1201862, “PubChem BioAssay data set” (2004)
# The source made the active and inactive calls.
# Columns and labels:
# [1] = target: T1, DNA repair protein RAD52 homolog (Homo sapiens, UniProt P43351); format: functional, biochemical
# T1 sequence (P43351 whole entry): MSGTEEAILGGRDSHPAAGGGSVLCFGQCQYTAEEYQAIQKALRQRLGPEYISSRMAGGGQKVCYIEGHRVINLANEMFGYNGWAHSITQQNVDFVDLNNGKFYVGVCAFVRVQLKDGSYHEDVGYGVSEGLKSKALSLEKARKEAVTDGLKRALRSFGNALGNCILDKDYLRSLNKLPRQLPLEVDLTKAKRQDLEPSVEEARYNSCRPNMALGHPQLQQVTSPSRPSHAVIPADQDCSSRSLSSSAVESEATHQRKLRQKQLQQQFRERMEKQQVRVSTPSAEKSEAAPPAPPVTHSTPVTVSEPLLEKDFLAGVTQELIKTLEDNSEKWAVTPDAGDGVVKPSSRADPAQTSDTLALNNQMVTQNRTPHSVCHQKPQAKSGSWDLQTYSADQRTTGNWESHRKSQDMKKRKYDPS
# [2] = target: T2, High affinity choline transporter 1 (Homo sapiens, UniProt Q9GZV3); assay: human choline transporter blockers, potency – cell-based, 5-point CRC, membrane potential dye, dose response (AID 504840); format: functional
# T2 sequence (Q9GZV3 whole entry): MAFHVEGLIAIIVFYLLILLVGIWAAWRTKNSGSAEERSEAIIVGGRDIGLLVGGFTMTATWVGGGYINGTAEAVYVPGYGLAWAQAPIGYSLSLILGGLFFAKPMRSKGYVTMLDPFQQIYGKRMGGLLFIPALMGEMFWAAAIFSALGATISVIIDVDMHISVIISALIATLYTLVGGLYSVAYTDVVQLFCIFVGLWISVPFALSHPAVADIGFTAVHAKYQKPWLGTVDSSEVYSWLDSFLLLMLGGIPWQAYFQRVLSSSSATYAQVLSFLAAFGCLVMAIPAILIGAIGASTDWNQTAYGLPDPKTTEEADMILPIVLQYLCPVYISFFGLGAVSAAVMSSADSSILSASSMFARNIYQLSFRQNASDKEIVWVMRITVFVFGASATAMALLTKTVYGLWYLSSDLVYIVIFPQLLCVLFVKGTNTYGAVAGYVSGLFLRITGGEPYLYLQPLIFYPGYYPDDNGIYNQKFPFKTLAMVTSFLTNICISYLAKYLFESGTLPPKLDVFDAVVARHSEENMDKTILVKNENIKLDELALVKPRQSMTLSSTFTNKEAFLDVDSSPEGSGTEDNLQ
# cells [3] = format: functional, cell-based
# [4] = target: T3, Trace amine-associated receptor 1 (Homo sapiens, UniProt Q96RJ0); assay: Fluorescence-based cell-based high throughput dose response assay to identify agonists of the human trace amine associated receptor 1 (TAAR1).; format: functional
# T3 sequence (Q96RJ0 whole entry): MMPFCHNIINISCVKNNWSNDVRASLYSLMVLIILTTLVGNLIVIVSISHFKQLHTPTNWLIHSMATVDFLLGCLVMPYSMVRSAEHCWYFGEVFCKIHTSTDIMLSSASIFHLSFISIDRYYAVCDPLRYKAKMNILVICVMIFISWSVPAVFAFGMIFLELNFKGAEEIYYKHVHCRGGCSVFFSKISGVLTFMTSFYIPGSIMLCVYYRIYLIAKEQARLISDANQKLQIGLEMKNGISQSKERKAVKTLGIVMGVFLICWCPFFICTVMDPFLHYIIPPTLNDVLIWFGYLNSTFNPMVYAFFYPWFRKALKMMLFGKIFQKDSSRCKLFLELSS
# [5] = target: T3, Trace amine-associated receptor 1; assay: Counterscreen for agonists of the human trace amine associated receptor 1 (hTAAR1): Fluorescence-based cell-based high throughput dose response assay to identify hTAAR1 agonist that also desensitize TAAR1 receptor response.; format: functional
# cells [6] = format: functional, cell-based; remark: listed apart in the source
# [7] = reduced cellular PGC1a acetyl-lysine signal – cell-based, cherry-picked samples, dose response (AID 720514); format: functional;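 note: potency may reflect raised or lowered acetylation signal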
# Caspase-6 = target: T4, Caspase-6 (Homo sapiens, UniProt P55212); assay: inhibition of CASP6 peptide cleavage – biochemical, VEID-R110 fluorescence, cherry-pick, dose response (AID 720632)
# T4 sequence (P55212 whole entry): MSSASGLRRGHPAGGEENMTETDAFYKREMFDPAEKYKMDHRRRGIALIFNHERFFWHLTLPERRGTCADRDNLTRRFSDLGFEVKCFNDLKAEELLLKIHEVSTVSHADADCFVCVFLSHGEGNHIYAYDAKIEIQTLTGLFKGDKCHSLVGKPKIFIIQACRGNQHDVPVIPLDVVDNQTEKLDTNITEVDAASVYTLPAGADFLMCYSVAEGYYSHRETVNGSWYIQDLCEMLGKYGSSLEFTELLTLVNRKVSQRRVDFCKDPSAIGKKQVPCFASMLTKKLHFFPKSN
# [8] = target: T5, Probable nicotinate-nucleotide adenylyltransferase (Staphylococcus aureus (strain N315), UniProt P65502); format: functional, Staphylococcus aureus subsp. aureus N315;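 for IC50 Mean: confirmatory dose-response retesting of NadD inhibitor hits first found in an ultra-high-throughput screen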
# T5 sequence (P65502 whole entry): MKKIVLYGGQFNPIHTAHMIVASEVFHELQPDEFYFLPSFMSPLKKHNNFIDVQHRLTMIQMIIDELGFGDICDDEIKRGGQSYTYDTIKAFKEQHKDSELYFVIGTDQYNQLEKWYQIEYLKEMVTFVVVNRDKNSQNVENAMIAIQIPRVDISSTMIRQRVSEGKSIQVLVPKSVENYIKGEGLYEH
# [9] = target: T5, Probable nicotinate-nucleotide adenylyltransferase; format: functional, Staphylococcus aureus subsp. aureus N315; details: read-out: IC50_Mean
# [10] = Luminescence-based cell-based high throughput dose response assay to identify activators of the DAF-12 from the parasite S. stercoralis (ssDAF-12).; format: functional
# [11] = target: T6, Oxysterols receptor LXR-beta (Homo sapiens, UniProt P55055); assay: LXR agonists, Gal4 luciferase reporter, dose response, counter-screen for ssDAF-12 agonist project, cell-based, luminescence, HEK293, S. stercoralis campaign (AID 720737); format: functional; details: read-out: IC50 (the source's name)
# T6 sequence (P55055 whole entry): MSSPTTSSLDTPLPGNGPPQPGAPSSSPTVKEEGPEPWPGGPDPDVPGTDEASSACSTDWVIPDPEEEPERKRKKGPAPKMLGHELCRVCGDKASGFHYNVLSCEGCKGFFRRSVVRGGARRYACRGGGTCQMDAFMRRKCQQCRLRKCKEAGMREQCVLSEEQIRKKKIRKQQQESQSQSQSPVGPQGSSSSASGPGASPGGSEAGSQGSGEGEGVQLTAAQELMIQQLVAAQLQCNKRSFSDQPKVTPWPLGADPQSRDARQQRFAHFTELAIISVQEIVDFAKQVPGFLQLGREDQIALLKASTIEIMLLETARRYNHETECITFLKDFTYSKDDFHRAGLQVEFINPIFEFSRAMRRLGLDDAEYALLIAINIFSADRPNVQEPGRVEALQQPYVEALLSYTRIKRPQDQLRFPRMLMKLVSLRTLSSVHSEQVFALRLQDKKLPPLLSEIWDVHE
# [12] = NIH-3T3 fibroblast cytotoxicity, dose response, cytotoxicity control, cell-based, fluorescence, Alamar Blue, secondary assay (AID 2327); format: functional;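 note: NIH-3T3 mouse fibroblasts cultured with fluconazole at 8 µg/mL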
# [13] = tested on: Streptococcus sp. 'group A'; assay: Streptococcus pyogenes SK(-)GAS viability under kanamycin – luminescence, BacTiterGlo, confirmation, counter-screen for streptokinase expression inhibitor project, dose response (AID 1900); format: functional, organism-based
# Streptokinase A = target: T7, Streptokinase A (Streptococcus pyogenes serotype M1, UniProt P10520); assay: viability-normalized secreted streptokinase activity reduction – plasminogen activation absorbance, OD405, dose response (AID 1914); format: functional, Streptococcus pyogenes M1 GAS;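 note: secreted streptokinase activity via plasminogen activation per viability signal from cell pellet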
# T7 sequence (P10520 whole entry): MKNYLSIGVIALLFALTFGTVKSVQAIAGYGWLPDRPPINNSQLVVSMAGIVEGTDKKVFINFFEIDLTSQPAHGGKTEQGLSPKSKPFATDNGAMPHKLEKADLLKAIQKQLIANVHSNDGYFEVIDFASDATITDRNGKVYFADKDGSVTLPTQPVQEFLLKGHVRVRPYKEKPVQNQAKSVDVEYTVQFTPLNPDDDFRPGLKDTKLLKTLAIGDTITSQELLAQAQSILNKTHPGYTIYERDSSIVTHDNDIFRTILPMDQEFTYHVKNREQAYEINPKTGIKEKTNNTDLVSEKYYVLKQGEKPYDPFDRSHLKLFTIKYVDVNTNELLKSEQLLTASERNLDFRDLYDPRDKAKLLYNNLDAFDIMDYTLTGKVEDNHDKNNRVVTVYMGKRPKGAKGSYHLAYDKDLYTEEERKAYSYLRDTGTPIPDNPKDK
# [14] = fluconazole-exposed Candida albicans growth modulators – fluorescence, retest, confirmation (AID 2467); format: functional, cell-based
# [15] = Trypanosoma cruzi growth suppression in host cells – NIH3T3 host cells, beta-gal luminescence, confirmation (AID 2044); format: functional, cell-based;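 note: intracellular parasites grown in NIH/3T3 mouse fibroblasts as host cells; luminescent beta-galactosidase reporter signal from transgenic T. cruzi replicating inside host cells; inhibitors lower the luminescence signal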
# [16] = microbe, parasite or virus in culture; format: functional; details: Mycobacterium tuberculosis
# [17] = NIH3T3 cell viability loss – ATP luminescence, mouse fibroblasts, counter-screen, dose response (AID 2010); format: functional, cell-based;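 note: cells exposed to compound for about 90 hours before reading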
# Streptococcus = assay: GAS UMAA2166 growth inhibition – luminescence, BacTiterGlo, counter-screen for streptokinase expression inhibitor project, dose response (AID 1915); format: functional, organism-based;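 note: potency for reduction of bacterial viability or growth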
# Paired box protein Pax-8 = Paired box protein Pax-8 (Homo sapiens, UniProt Q06710); assay: PAX8 transcriptional activity inhibition in RMG-I – RMG-I cells, luciferase, cherry-pick, dose response (AID 687027); format: functional, cell-based;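 note: luciferase reporter driven by Pax8 target thyroperoxidase promoter measured by SteadyGlo luminescence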
# Paired box protein Pax-8, sequence (Q06710 whole entry): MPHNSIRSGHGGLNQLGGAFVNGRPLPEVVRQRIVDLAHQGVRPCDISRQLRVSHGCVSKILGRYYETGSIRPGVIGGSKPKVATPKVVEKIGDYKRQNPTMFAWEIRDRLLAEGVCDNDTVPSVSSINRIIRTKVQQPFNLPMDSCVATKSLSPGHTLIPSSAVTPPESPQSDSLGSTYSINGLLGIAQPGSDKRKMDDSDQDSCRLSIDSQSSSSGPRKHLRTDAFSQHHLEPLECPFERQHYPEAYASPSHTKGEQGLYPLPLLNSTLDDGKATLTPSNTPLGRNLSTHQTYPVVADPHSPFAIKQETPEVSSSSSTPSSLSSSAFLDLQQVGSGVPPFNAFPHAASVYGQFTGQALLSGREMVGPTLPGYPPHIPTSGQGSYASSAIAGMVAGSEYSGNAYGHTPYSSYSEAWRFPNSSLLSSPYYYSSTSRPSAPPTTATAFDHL
# [18] = general cell-killing toxicity readout – plate reader, dry powder samples, cytotoxicity control for PAX8 inhibitor project, dose response (AID 743021); format: functional, cell-based
# [19] = OVCAR8 cell viability loss – plate reader, dry powder samples, PAX8 project, dose response (AID 743197); format: functional, cell-based; details: OVCAR-8
# [20] = OVCAR-3 cell viability loss – plate reader, dry powder samples, PAX8 inhibitor project, dose response (AID 743044); format: functional, cell-based
# [21] = IGROV1 cell killing – plate reader, dry powder samples, PAX8 inhibitor project, dose response (AID 743043); format: functional, cell-based; details: IGROV-1
smiles,measurement,setting,value
Cc1cccc2sc(N(CCCN(C)C)C(=O)c3ccc(Cl)s3)nc12,AC50,[1],24.9 µM (active)
CCN1CCN(c2cc(C)c3cc(NC(=S)N4CCOCC4)ccc3n2)CC1,IC50,[2],12.6 µM (active)
same,AC50,[1],22 µM (active)
O=C(CC1Nc2ccccc2NC1=O)NCCc1ccccc1 (stereo not given),IC50,cells [3],> 29.9 µM (inactive)
same,EC50,[4],2.27 µM (active)
same,IC50,[5],7.18 µM (active)
same,EC50,cells [6],> 29.9 µM (inactive)
CCCCOc1ccc(/C=C/C(=O)OCC(=O)c2c(N)n(C)c(=O)n(C)c2=O)cc1OCC,AC50,[7],12.6 µM (active)
O=C(O)/C=C/C(=O)NCCc1cccc(Cl)c1,IC50,cells [3],> 29.9 µM (inactive)
same,EC50,[4],0.7 µM (active)
same,IC50,[5],3.77 µM (active)
same,EC50,cells [6],> 29.9 µM (inactive)
COc1ccc(-c2nn(-c3ccccc3)cc2C(=O)Nc2cccc(C(=O)O)c2)cc1[N+](=O)[O-],AC50,Caspase-6,5.45 µM (active)
Cc1ccc(Cn2nnc3c(O)nc(C4CCN(S(=O)(=O)c5ccc(S(=O)(=O)NC6CC6)cc5)CC4)nc32)cc1,IC50,[8],23.7 µM (active)
same,IC50,[9],54.4 µM (active)
COc1ccc(-c2nc3ccccc3c(=O)o2)cc1OC,AC50,[7],28.1 µM (active)
CC(C)c1ccc(-c2nnn(CC(=O)N3CCCCC3)n2)cc1,AC50,[7],24.3 µM (active)
O=C(NCC1CCCO1)c1ccc(NC(=O)c2ccc(Br)cc2)cc1 (stereo not given),IC50,cells [3],> 29.9 µM (inactive)
same,EC50,[4],1.45 µM (active)
same,IC50,[5],> 29.9 µM (inactive)
same,EC50,cells [6],> 29.9 µM (inactive)
COC(=O)[C@]1(C)N[C@H](CN(C)C(C)=O)[C@@H]2C(=O)N(Cc3ccccc3)C(=O)[C@@H]21,IC50,[10],> 67.5 µM (inactive)
same,EC50,[11],> 67.5 µM (inactive)
Cc1ccc(S(=O)(=O)Nc2ccc(Nc3nccn4c(-c5ccccc5Oc5ccccc5)cnc34)cc2)cc1,IC50,[8],10.4 µM (active)
same,IC50,[9],20.1 µM (active)
O=C(N/N=C\C=C\c1ccc([N+](=O)[O-])o1)c1cccs1,EC50,[12],> 160 µM (inconclusive)
same,EC50,[13],3.56 µM (active)
same,EC50,Streptokinase A,> 150 µM (not active)
same,EC50,[14],0.068 µM (active)
same,EC50,[15],0.243 µM (active)
same,CC50,[16],30.6 µM (active)
same,EC50,[17],5.29 µM (active)
same,EC50,Streptococcus,6.16 µM (active)
same,AC50,Caspase-6,7.38 µM (active)
O=C(O)c1ccccc1NS(=O)(=O)c1ccc(N/N=C/c2cccc(O)c2O)c([N+](=O)[O-])c1,AC50,Caspase-6,6.45 µM (active)
COc1ccc(CC2=NCCc3cc(OC)c(OC)cc32)cc1OC,AC50,[1],15.2 µM (active)
C[C@H](CO)N1C[C@H](C)[C@@H](CN(C)C(=O)Cc2ccccc2)OCCCC[C@H](C)Oc2ccc(NC(=O)Nc3ccc(C(F)(F)F)cc3)cc2C1=O,AC50,Paired box protein Pax-8,4.34 µM (active)
same,AC50,[18],48.5 µM (active)
same,AC50,[19],> 70 µM (inactive)
C[C@H]1CCCCO[C@H](CN(C)C(=O)Nc2ccc(C(F)(F)F)cc2)[C@@H](C)CN([C@@H](C)CO)C(=O)c2cc(NC(=O)Nc3ccccc3)ccc2O1,AC50,Paired box protein Pax-8,3.02 µM (active)
same,AC50,[20],22.1 µM (active)
same,AC50,[21],59.3 µM (active)
same,AC50,[19],> 70 µM (inactive)
Cc1ccc(-n2nc(C)c(/C=N/c3ccc(S(=O)(=O)Nc4nccs4)cc3)c2O)cc1C,IC50,[8],4.08 µM (active)
same,IC50,[9],17.4 µM (active)
